From patent publication US8148392B2, “2-indolyl imidazo [4,5-d] phenanthroline derivatives and their use in the treatment of cancer” (Lorus Therapeutics Inc., priority 2005, dated 2012)
Entries after “also recorded” stand apart in the source; their conditions may differ.

Key:
[1] = tested on: Cyclin D1 protein; experiment: Cyclin D1 protein in HT-29 cells, Western blotting; assay type: cell-based, human; settings: HT-29, 1 μM
Method: Gene and protein expression of Cyclin D1 after treatment with compound 3 was determined by RT-PCR and Western blotting as shown in FIGS. 43A and 43B, respectively, as follows. HT-29 cells were treated with 1 μM compound 3 for indicated time. Total RNA was extracted and gene expression level was determined by RT-PCR. Cyclin D1 protein expression in HT-29 cell lysate was determined by SDS-PAGE followed by Western blotting.
To identify the cell cycle regulatory pathway involved in compound 3-mediated cell cycle arrest as shown in Example 23 and 41, particularly associated with G1/S phase, expression of the key cell cycle regulator of G1/S phase progression, Cyclin D1, was examined.

[2] = tested on: CCRF-CEM leukemia cells; experiment: Apoptosis, annexin V-FITC/PI flow cytometry, CCRF-CEM; assay type: cell-based, human; settings: 0.1-1 μM, 24 hours
Method: The ability of compound 3 to alter the population of cells at different stages of apoptosis was measured by determining the effect of compound 3 on populations of CCRF-CEM leukemia cells treated with vehicle (DMSO), 0.1 μM, 0.25 μM, 0.5 μM, or 1 μM of compound 3 for 24 hours. CCRF-CEM cells were seeded and treated with the above concentrations of compound 3 or 0.1% DMSO vehicle control as described in Example 23. After 24 hours, the cells were collected by centrifugation and re-suspended in growth media to approximately 1×10^6 cells/ml. Then the cells were stained for annexin V binding and PI staining using the annexin V-FITC apoptosis detection kit (Oncogene™ research products, Mass.) and following the manufacturer's RAPID Annexin V Binding protocol. The fluorescence of stained cells was analyzed using FACScan flow cytometer and the Cell Quest program (BD Biosciences, San Jose, Calif.). Data were evaluated using Modfit software (Verity software House, Topsham, Me.) to generate quadrant statistics. Cells stained with Annexin V only are considered to be in early apoptosis, whereas cells stained with both Annexin V and propidium iodide are considered to be in late apoptosis. Cells stained with propidium iodide only are non-viable, whereas no staining indicates viable cells. MOLT-4 leukemia cells were treated similarly.

[3] = tested on: KLF4; experiment: KLF4 mRNA in HT-29 tumour xenografts, RT-PCR; assay type: in vivo, CD-1 female nude mice
Method: The ability of compound 3 to modulate expression of KLF4 in HT-29 colon tumour xenograft was determined as follows. Groups of 10 CD-1 female nude mice (6-7 weeks) were injected in the lower mid back with human colon adenocarcinoma cells HT-29 cells (3×10^6 cells in 0.1 ml PBS) subcutaneously. […] After the treatment period, the animals were sacrificed, the tumours excised, and total RNA was extracted from 30 mg of tumour tissue using Rneasy Mini kit (QIAGEN, Valencia, Calif.). The expression of KLF4 mRNA was analyzed by real-time polymerase chain reaction using the comparative CT method as described in Example 19. […]
To examine the effect of compound 3-mediated changes in KLF4 and Cyclin D1 expressions in vivo, the expressions of respective genes in xenograft tissues of vehicle control (Lutrol) and compound 3-treated HT-29 colon cancer cell-transplanted mice were analyzed by RT-PCR (FIG. 46). Briefly, KLF4 and Cyclin D1 gene expression in HT-29 xenograft tissues after 14 days treatment with compound 3 was measured as follows. […] Total RNA was extracted and gene expression level was determined by RT-PCR. […]
The tumor regression efficacy of compound 3 was assessed in compound 3-treated HT-29-transplanted athymic mice (FIG. 54A), and correlated with gene expressions of MTF-1, KLF4 and Cyclin D1 in HT-29 xenograft tissues (FIG. 54B). […]

[4] = tested on: human leukemia CCRF-CEM cells; experiment: Cell cycle analysis by flow cytometry, CCRF-CEM; assay type: cell-based; settings: 0.25-1 μM, 24 hours
Method: To test the ability of compounds of Formula I to block cell cycle progression, compound 3 was incubated with human colon carcinoma HT-29 or human leukemia CCRF-CEM cells to determine alterations in populations of cells at different stages of the cell cycle using flow cytometric analysis. HT-29 cells were maintained as described in Example 13. CCRF-CEM cells used in this example and subsequent examples were maintained as suspension cells in a growth medium; RPMI-1640 medium (Sigma, St. Louis, Mo.), supplemented with 2 mM L-glutamine (Gibco, Grand Island, N.Y.), 10% fetal bovine serum (FBS) (Multicell, WISENT Inc. St-Bruno, QC), antibiotic-antimycotic (Multicell), at 37° C. in a 5% CO2-humidified incubator.
The assay was carried out as follows. For HT-29 cells, 1×10^6 cells in 10 mL volume of the growth medium were seeded in 100 mm dishes. For CCRF-CEM cells, 3×10^6 cells in 10 mL volume of the growth medium were seeded in 25 cm^2 flask. […] The fluorescence of stained cells was analyzed using FACScan flow cytometer and the Cell Quest program (BD Biosciences, San Jose, Calif.). Data were evaluated using Modfit software (Verity software House, Topsham, Me.). Values were determined by gate analysis of flow cytometric plots. […]

## Cc1[nH]c2ccccc2c1-c1nc2c3cccnc3c3ncccc3c2[nH]1 [Compound 3]
[1]
  Cyclin D1 protein expression: decrease in both gene (FIG. 43A) and protein (FIG. 43B) levels of Cyclin D1; also recorded: Decreased protein expression of Cyclin D1
[2]
  induction of apoptosis: increase in the number of early and late apoptotic cells
[3]; 50 mg/kg/d, 35 days, versus vehicle
  induction of KLF4 in tumour xenografts: approximately 1.5 fold
[3]; 100 mg/kg i.p., 14 days or 2 cycles of 5 days
  KLF4 gene expression in xenograft tissue, change: increase in KLF4 gene; also recorded: significant increase in KLF4
[4]
  cell cycle progression: induced a block in cell cycle progression at the G1 phase
